The record followed here is patent publication US20050288347A1, “Certain triazole-based compounds, compositions, and uses thereof” (priority 2004, published 2005).

Entries after “also recorded” stand apart in the source; their conditions may differ.

The subject of the first experiment is protein kinase. The experiment is described as follows: HTS ATP-utilizing enzyme assay, off-chip mobility-shift format (Caliper HTS 250). It is filed as biochemical, human.
Settings: not given
In short, it runs like this:
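Kinase reactions ran 2.5 h at 20 to 22 °C with test compound at 10 μM, in a HEPES pH 7.5 master buffer containing Triton X-100 and BSA. Peptide substrate and phosphorylated product separated by mobility shift; inhibition normalized to DMSO (0%) and EDTA (100%) controls, with three-sigma thresholds for hits.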
Regarding `COc1ccccc1-n1c(SCCCCc2ccccc2)nnc1-c1cccc(N(C)C)c1`, the “protein kinase against which the compound exhibits inhibitory activity (Table 3)” value is “MAPKAPK-3”.

Staying with this experiment, now noted: kinase(s) for which the compound exhibits protein kinase inhibitory activity; test compound 10 μM; active = greater than three-sigma from the mean activity of inactive compounds.
Consider `O=C(CSc1nnc(-c2ccncc2)n1Cc1ccco1)Nc1cccc(O)c1`, for which the Kinase result is “GSK3-β and GSK3-α and AKT3”.

With `Cc1ccc(-n2c(SCC(=O)CC(=O)Nc3ccccc3)nnc2-c2cccnc2)cc1`, the Kinase entry is “AURORA-A”.

As for `CCn1c(COc2ccccc2)nnc1SCC(=O)Nc1sc2c(c1C#N)CCCC2`, the Kinase result is reported as “AKT1”.

Take `O=C(CSc1nnc(-c2ccncc2)n1-c1ccc(F)cc1)Nc1nccs1`: the Kinase result is on record as “GSK3-α; also recorded: GSK3-β; also recorded: CDK2-cyclinE”.

As for `O=C(CSc1nnc(-c2ccc(O)cc2)n1CC1CCCO1)c1ccc2c(c1)OCCO2` (centres unmarked), the Kinase result is “GSK3-β and SGK1”.

`COc1ccc(-c2nnc(SCC(=O)N(C)C)n2-c2ccccc2)cc1`: the Kinase entry was “PDK1 and SYK and INSR”.

On to `O=C(CSc1nnc(CNc2cccc(Cl)c2)n1CCc1ccccc1)NC1CCCCC1`, for which the Kinase result is given as “CDK2-cyclinE”.

Turning to `O=C(CSc1nnc(-c2ccc(O)cc2)n1Cc1ccco1)c1ccccc1`, the Kinase entry was “GSK3-β and GSK3-α and MSK2”.

For the compound `CCn1c(S)nnc1CSc1nc(C)cc(C)n1` [5-((4,6-dimethylpyrimidin-2-ylthio)methyl)-4-ethyl-4H-1,2,4-triazole-3-thiol], the Kinase result was “GSK3-α”.

Consider `CCOC(=O)CSc1nnc(-c2ccco2)n1-c1ccc(C)cc1` [ethyl 2-(5-(furan-2-yl)-4-p-tolyl-4H-1,2,4-triazol-3-ylthio)acetate], for which the Kinase result was “PAK2”.

On to `Cn1c(SCC(=O)N2CCCCCC2)nnc1-c1ccc(S(=O)(=O)N2CCCC2)cc1`, for which the Kinase entry is “c-TAK1”.

Consider `COc1ccc(NCc2nnc(SCC(=O)Nc3cccc(C(C)=O)c3)n2-c2ccc(Cl)cc2)cc1`, for which the Kinase result was “PDGFRR-α and FYN and FLT-3”.

Take `CC(Sc1nnc(COc2ccccc2)n1-c1ccccc1)C(=O)O` (centres unmarked) [2-(5-(phenoxymethyl)-4-phenyl-4H-1,2,4-triazol-3-ylthio)propanoic acid]: the Kinase entry is given as “FYN”.

As for `COc1ccc(CCNC(=O)CSc2nnc(-c3cc4ccccc4cc3O)n2C)cc1OC`, the Kinase entry is “FYN”.

As to `Sc1nnc(CCc2nc3ccccc3[nH]2)n1-c1cccc(Cl)c1`, the Kinase result is recorded as “GSK3-α”.

As for `COc1ccccc1-n1c(SCC(=O)O)nnc1C1CCCCC1` [2-(5-cyclohexyl-4-(2-methoxyphenyl)-4H-1,2,4-triazol-3-ylthio)acetic acid], the Kinase result is recorded as “GSK3-β”.

As for `COc1ccccc1-n1c(SCC(=O)OCc2ccccc2)nnc1-c1ccco1`, the Kinase result was “GSK3-α; also recorded: AURORA-A”.

As to `COc1ccccc1NC(=O)CSc1nnc(CNc2cccc(Cl)c2)n1-c1ccccc1`, the Kinase entry was “MSK1 and SGK1”.

With `COc1ccc(NCc2nnc(SCC(=O)NCc3ccco3)n2-c2ccccc2OC)cc1`, the Kinase result was “PDGFRR-α and FYN”.

Consider `Cn1c(CNc2nc(-c3ccccc3)cs2)nnc1SCC(=O)NCc1ccccc1`, for which the Kinase entry is “PDGFRR-α and PKA”.

For `COc1ccc(-n2c(SCC(N)=O)nnc2-c2ccc(S(=O)(=O)N3CCCC3)cc2)cc1`, the Kinase result is on record as “MAPKAPK-2”.

Take `O=C(CSc1nnc(-c2ccco2)[nH]1)c1ccc(O)c(O)c1` [1-(3,4-dihydroxyphenyl)-2-(5-(furan-2-yl)-4H-1,2,4-triazol-3-ylthio)ethanone]: the Kinase entry was “FYN and PDGFRR-α and FLT-3”.

In the case of `O=C(O)CSc1nnc(-c2ccc(OC(F)(F)F)cc2)[nH]1` [2-(5-(4-(trifluoromethoxy)phenyl)-4H-1,2,4-triazol-3-ylthio)acetic acid], the Kinase entry is “GSK3-β; also recorded: GSK3-α; also recorded: DYRK2”.

With `COc1ccc(-c2nnc(SCC(=O)Nc3cccc(Cl)c3)n2-c2ccccc2)cc1`, the Kinase result is “PRAK and CHEK2 and AURORA-A”.

Consider `CCC(=O)Nc1ccc(C(=O)CSc2nnc(-c3ccc(O)cc3)n2Cc2ccco2)cc1OC`, for which the Kinase result is recorded as “GSK3-β; also recorded: GSK3-α”.

Consider `Cn1c(SCC(=O)Nc2cccc(NC(=O)c3ccco3)c2)nnc1-c1ccncc1`, for which the Kinase entry is on record as “GSK3-β; also recorded: AURORA-A; also recorded: GSK3-α”.

As for `NC(=O)CSc1nnc(CNc2cccc(Cl)c2)n1CCc1ccccc1`, the Kinase result was “CDK2-cyclinA and CDK1 and AURORA-A”.

For the compound `CCn1c(CNc2cccc(Cl)c2)nnc1SCC(=O)Nc1ccc(C(C)=O)cc1`, the Kinase entry is “CDK1”.

In the case of `C=CCNC(=O)CSc1nnc(-c2ccccc2O)n1-c1ccc(C)cc1` [N-allyl-2-(5-(2-hydroxyphenyl)-4-p-tolyl-4H-1,2,4-triazol-3-ylthio)acetamide], the Kinase result is “AURORA-A”.

As to `COCCn1c(SCC(=O)O)nnc1-c1cc2c(C)nn(-c3ccccc3)c2s1`, the Kinase entry is listed as “AKT1”.

Regarding `COCCCn1c(SCC(=O)OCc2ccccc2)nnc1-c1ccc(OC)cc1`, the Kinase result is “CDK2-cyclinE and MSK1”.

In the case of `COc1ccccc1-c1nnc(SCC(=O)Nc2ccccc2)n1C`, the Kinase entry is given as “AURORA-A”.

With `COc1ccc(NC(=O)CSc2nnc(-c3ccccc3O)n2-c2ccc(C)cc2)c(OC)c1`, the Kinase result was “MSK2 and CDK1”.

Consider `Cn1c(SCC(=O)OC2CCCCC2)nnc1-c1cc2ccccc2cc1O`, for which the Kinase entry is on record as “AURORA-A; also recorded: DAPK1; also recorded: c-TAK1”.

As for `Cn1c(SCC(=O)N2c3ccccc3Sc3ccccc32)nnc1-c1cc2ccccc2cc1O`, the Kinase result is recorded as “AURORA-A”.

On to `COc1ccc(NCc2nnc(SCC(=O)O)n2-c2ccc(OC)cc2)cc1`, for which the Kinase result was “PDGFRR-α and FYN”.

As to `CC(C)Cn1c(SCC(=O)OCc2ccccc2)nnc1-c1ccccc1O` [benzyl 2-(5-(2-hydroxyphenyl)-4-isobutyl-4H-1,2,4-triazol-3-ylthio)acetate], the Kinase entry was “CDK2-cyclinE”.

Turning to `Cc1ccc(NC(=O)C(C)Sc2nnc(-c3ccc(O)cc3)n2-c2ccccc2)cc1` (centres unmarked), the Kinase entry is reported as “HCK”.

Turning to `Oc1ccccc1-c1nnc(S)n1CCc1ccccc1` [2-(5-mercapto-4-phenethyl-4H-1,2,4-triazol-3-yl)phenol], the Kinase entry is on record as “CDK2-cyclinE; also recorded: DAPK1”.

With `Cc1ccc(-n2c(C)nnc2SCc2nnc(S)n2-c2ccccc2)cc1`, the Kinase result is “PDGFRR-α”.

The same experiment, now with this note: test compound 10 μM; active = activity greater than three-sigma from the mean of the predominately inactive population for that enzyme.
In the case of `c1cncc(-c2nnc(SCCN3CCCCC3)[nH]2)c1`, the “protein kinase against which the compound exhibits inhibitory activity (Table 3)” value is given as “GSK3-α”.

Regarding `Clc1ccc(Cn2c(SCc3ccccc3)nnc2C2CCCCC2)cc1Cl` [3-(benzylthio)-5-cyclohexyl-4-(3,4-dichlorobenzyl)-4H-1,2,4-triazole], the “protein kinase against which the compound exhibits inhibitory activity (Table 3)” value is listed as “c-TAK1”.

Regarding `CCn1c(COc2ccccc2OC)nnc1SCc1ccc(Cl)cc1`, the “protein kinase against which the compound exhibits inhibitory activity (Table 3)” value was “CDK2-cyclinE”.

Regarding `OCC(O)CSc1nnc(-c2cccnc2)[nH]1` (centres unmarked) [3-(5-(pyridin-3-yl)-4H-1,2,4-triazol-3-ylthio)propane-1,2-diol], the “protein kinase against which the compound exhibits inhibitory activity (Table 3)” value is “AURORA-A”.

On to `CCn1c(SCc2ccc(-c3csnn3)cc2)nnc1-c1cc(-c2ccccc2)nc2ccccc12`, for which the “protein kinase against which the compound exhibits inhibitory activity (Table 3)” value is on record as “c-TAK1”.

On to `Cc1cc(C)nc(SCc2nnc(SCc3ccccc3)n2Cc2ccco2)n1`, for which the “protein kinase against which the compound exhibits inhibitory activity (Table 3)” value is recorded as “CDK1”.

As for `COc1ccccc1-n1c(SCCCC(=O)O)nnc1-c1ccccc1` [4-(4-(2-methoxyphenyl)-5-phenyl-4H-1,2,4-triazol-3-ylthio)butanoic acid], the “protein kinase against which the compound exhibits inhibitory activity (Table 3)” value is given as “c-TAK1”.

Consider `Clc1ccc(CSc2nnc(-c3ccncc3)n2Cc2ccco2)c(Cl)c1`, for which the “protein kinase against which the compound exhibits inhibitory activity (Table 3)” value was “MSK2 and MSK1 and AKT3”.

For `Cc1nnc(SCCc2ccccc2)[nH]1` [3-methyl-5-(phenethylthio)-4H-1,2,4-triazole], the “protein kinase against which the compound exhibits inhibitory activity (Table 3)” value is given as “AURORA-A; also recorded: GSK3-β”.

Take `Clc1cccc(NCc2nnc(SCc3ccccc3Cl)n2-c2ccccc2)c1`: the “protein kinase against which the compound exhibits inhibitory activity (Table 3)” value is reported as “LCK”.

Regarding `CCOc1ccc(NCc2nnc(SCCN3CCOCC3)n2-c2cccc(Cl)c2)cc1`, the “protein kinase against which the compound exhibits inhibitory activity (Table 3)” value is “FYN and FLT-3 and PDGFRR-α”.

In the case of `COc1ccc(-n2c(COc3ccc4ccccc4c3)nnc2SCCN2CCOCC2)cc1`, the “protein kinase against which the compound exhibits inhibitory activity (Table 3)” value was “CDK2-cyclinE”.

On to `COc1ccc(-n2c(Cc3ccccc3)nnc2SC)cc1` [3-benzyl-4-(4-methoxyphenyl)-5-(methylthio)-4H-1,2,4-triazole], for which the “protein kinase against which the compound exhibits inhibitory activity (Table 3)” value is listed as “AKT1”.

On to `COc1ccc(-n2c(SCC(=O)NNC(C)=O)nnc2-c2ccncc2)cc1`, for which the “protein kinase against which the compound exhibits inhibitory activity (Table 3)” value is on record as “FYN”.

`COc1ccccc1-n1c(SCC(=O)Nc2cc(NC(=O)c3ccco3)ccc2C)nnc1-c1ccccc1O`: the “protein kinase against which the compound exhibits inhibitory activity (Table 3)” value is reported as “AURORA-A”.

As for `Cc1nnc(SCc2cccc3ccccc23)[nH]1` [3-methyl-5-(naphthalen-1-ylmethylthio)-4H-1,2,4-triazole], the “protein kinase against which the compound exhibits inhibitory activity (Table 3)” value is on record as “AURORA-A; also recorded: DYRK2; also recorded: GSK3-α”.

For `Cn1c(SCC(=O)NNC(=O)c2ccccc2O)nnc1-c1ccccc1`, the “protein kinase against which the compound exhibits inhibitory activity (Table 3)” value was “FYN and FLT-3 and CSK”.

With `COc1ccccc1-n1c(SCCC(=O)OCc2ccccc2)nnc1C1CCCCC1`, the “protein kinase against which the compound exhibits inhibitory activity (Table 3)” value is listed as “AURORA-A”.

As for `CCn1c(COc2ccc(Br)cc2)nnc1SCCC(=O)O`, the “protein kinase against which the compound exhibits inhibitory activity (Table 3)” value is “AURORA-A”.

As to `CSc1nnc(-c2ccc(O)cc2)n1-c1ccccc1` [4-(5-(methylthio)-4-phenyl-4H-1,2,4-triazol-3-yl)phenol], the “protein kinase against which the compound exhibits inhibitory activity (Table 3)” value was “GSK3-β; also recorded: GSK3-α; also recorded: CDK2-cyclinA”.

For `CCOCCSc1nnc(-c2ccc(OC(F)(F)F)cc2)[nH]1` [3-(2-ethoxyethylthio)-5-(4-(trifluoromethoxy)phenyl)-4H-1,2,4-triazole], the “protein kinase against which the compound exhibits inhibitory activity (Table 3)” value is on record as “AURORA-A; also recorded: GSK3-β”.
